{"source": "patent EP0976707A1", "about": "“CYCLOALKYL BENZYL ETHER COMPOUNDS” (Nissan Chemical Industries, Ltd., priority 1997, dated 1998)", "assay_type_in_all_cases": "in vivo", "key": {"Monochoria vaginalis [1]": {"tested_on": "Monochoria vaginalis", "experiment": "Herbicidal effect test under submerged conditions, inhibition ratio (Test Example 6)", "conditions": "Pontederia vaginalis, 504 h; dosage 25 g/ha; live weight of aerial part, three weeks after the treatment; read-out: inhibition ratio (%), C (Monochoria vaginalis)", "source_text": "(§1) [Test Example 6] Herbicidal effect test under submerged conditions\n(§2) In a 1/5,000-are Wagner pot was filled alluvial soil, which was mixed with water introduced therein to establish submerged conditions at a water depth of 4 cm. After seeds of Monochoria vaginalis and Scirpus juncoides were sowed mixedly in the pot, 2.5 leaf stage rice seedlings were transplanted at a depth of 2 cm. On the next day of transplantation of the rice, the compound of the present invention prepared according to one of Composition Examples was applied. Three weeks after the treatment, the live weights of aerial parts of each kind of the weeds and rice were measured and inhibition ratios (%) were obtained according to Test Example 4. In the tables, (E) indicates expected values obtained by the equation of Colby and (F) indicates found values. Left side values and right side values in the column of application rate for each active ingredient indicate corresponding dosages of compounds in the column of compound name.\n(§3) Synergistic herbicidal effect of herbicide mixtures will be explained as follows. That is, individual active compounds in many cases may be deficient in their herbicidal activity. In such a case, if the herbicidal activity of two active compounds in combination is higher than the simple sum of the activities of the compounds (expected activity), then this is called synergistic action. The expected activity from the stable combination of two herbicides, can be calculated as follows. (cf. Colby, S. R., Calculation of Synergistic and Antagonistic Reactions of Combination of Herbicides, Weed, vol. 15, pages 20-22 (1967)) E = α + β - ( α · β / 100) [formula] α : Inhibition ratio when herbicide A is applied in a rate of a kg/ha β : Inhibition ratio when herbicide B is applied in a rate of b kg/ha E : Inhibition ratio expected when herbicide A is applied in a rate of a kg/ha and herbicide B is applied in a rate of b kg/ha."}, "Scirpus juncoides [2]": {"tested_on": "Scirpus juncoides", "experiment": "Herbicidal effect test under submerged conditions, inhibition ratio (Test Example 6)", "conditions": "Schoenoplectiella juncoides, 504 h; dosage 25 g/ha; live weight of aerial part, three weeks after the treatment; read-out: inhibition ratio (%), B (Scirpus juncoides)", "source_text": "as §1, §2, §3"}, "transplanted rice [3]": {"tested_on": "transplanted rice", "experiment": "Herbicidal effect test under submerged conditions, inhibition ratio (Test Example 6)", "conditions": "dosage 25 g/ha; live weight of aerial part, three weeks after the treatment", "source_text": "Herbicidal effect test under submerged conditions\nIn a 1/5,000-are Wagner pot was filled alluvial soil, which was mixed with water introduced therein to establish submerged conditions at a water depth of 4 cm. After seeds of Monochoria vaginalis and Scirpus juncoides were sowed mixedly in the pot, 2.5 leaf stage rice seedlings were transplanted at a depth of 2 cm. On the next day of transplantation of the rice, the compound of the present invention prepared according to one of Composition Examples was applied. […] In the tables, (E) indicates expected values obtained by the equation of Colby and (F) indicates found values.\nThe expected activity from the stable combination of two herbicides, can be calculated as follows."}, "[4]": {"tested_on": "Echinochloa crus-galli var. crus-galli", "experiment": "Comparative test, pre-emergence treatment under submerged conditions (as Test Example 1)", "set-up": "key: 0 indicating no influence; 5 indicating complete withering", "conditions": "three weeks after the treatment, rating 0-5", "source_text": "(§4) [Test Example 1] Herbicidal effect test by pre-emergence treatment to weeds under submerged conditions\n(§5) In a 1/10,000-are Wagner pot was filled alluvial soil, which was mixed with water introduced therein to establish submerged conditions at a water depth of 4 cm. Respective seeds of Echinochloa crus-galli var. crus-galli, Monochoria vaginalis, Rotala indica and Scirpus juncoides were sowed mixedly in the pot and then 2.5 leaf stage rice seedlings were transplanted. The pot was placed in a greenhouse at 25 to 30°C to grow the plant. One day after the sowing, the compound of the present invention prepared according to one of Composition Examples was applied onto the water surface at a predetermined application rate. Three weeks after the treatment, the herbicidal effect on the rice plant and each kind of the weeds was examined. There was used five rating evaluation, with 0 indicating no influence and 5 indicating complete withering.\n(§6) [drawing 170] (diastreomer-(1) and (2)) involved in the claims of WO 97/02258 and the compound No. A-5 of the present invention were carried out in manners similar to that in test example 1 and 2."}, "Monochoria vaginalis [5]": {"tested_on": "Monochoria vaginalis", "experiment": "Comparative test, pre-emergence treatment under submerged conditions (as Test Example 1)", "set-up": "key: 0 indicating no influence; 5 indicating complete withering", "conditions": "three weeks after the treatment, rating 0-5", "source_text": "as §4, §5, §6"}, "Rotala indica [6]": {"tested_on": "Rotala indica", "experiment": "Comparative test, pre-emergence treatment under submerged conditions (as Test Example 1)", "set-up": "key: 0 indicating no influence; 5 indicating complete withering", "conditions": "three weeks after the treatment, rating 0-5", "source_text": "as §4, §5, §6"}, "Scirpus juncoides [7]": {"tested_on": "Scirpus juncoides", "experiment": "Comparative test, pre-emergence treatment under submerged conditions (as Test Example 1)", "set-up": "key: 0 indicating no influence; 5 indicating complete withering", "conditions": "three weeks after the treatment, rating 0-5", "source_text": "as §4, §5, §6"}, "transplanted rice [8]": {"tested_on": "transplanted rice", "experiment": "Comparative test, pre-emergence treatment under submerged conditions (as Test Example 1)", "set-up": "key: 0 indicating no influence; 5 indicating complete withering", "conditions": "pre-emergence treatment to weeds, three weeks after the treatment, rating 0-5", "source_text": "as §4, §5, §6"}, "[9]": {"tested_on": "Echinochloa crus-galli var. crus-galli", "experiment": "Comparative test, post-emergence treatment under submerged conditions (as Test Example 2)", "set-up": "key: 0 indicating no influence; 5 indicating complete withering", "conditions": "three weeks after the treatment, rating 0-5", "source_text": "(§7) [Test Example 2] Herbicidal effect test by post-emergence treatment to weeds under submerged conditions\nas §5, with “When Echinochloa crus-galli var. crus-galli, Monochoria vaginalis, Rotala indica and Scirpus juncoides reached 1 to 2 leaf stage and” for “One day after”, “rice plant reached 4 leaf stage,” for “sowing,”, “on” for “on the rice plant and”, “examined in accordance” for “examined. There was used five rating evaluation,”, “the criteria of judgment in Test Example 1.” for “0 indicating no influence and 5 indicating complete withering.”\nas §6"}, "Monochoria vaginalis [10]": {"tested_on": "Monochoria vaginalis", "experiment": "Comparative test, post-emergence treatment under submerged conditions (as Test Example 2)", "set-up": "key: 0 indicating no influence; 5 indicating complete withering", "conditions": "three weeks after the treatment, rating 0-5", "source_text": "as §7\nas §5, with “When Echinochloa crus-galli var. crus-galli, Monochoria vaginalis, Rotala indica and Scirpus juncoides reached 1 to 2 leaf stage and” for “One day after”, “rice plant reached 4 leaf stage,” for “sowing,”, “on” for “on the rice plant and”, “examined in accordance” for “examined. There was used five rating evaluation,”, “the criteria of judgment in Test Example 1.” for “0 indicating no influence and 5 indicating complete withering.”\nas §6"}, "Scirpus juncoides [11]": {"tested_on": "Scirpus juncoides", "experiment": "Comparative test, post-emergence treatment under submerged conditions (as Test Example 2)", "set-up": "key: 0 indicating no influence; 5 indicating complete withering", "conditions": "three weeks after the treatment, rating 0-5", "source_text": "as §7\nas §5, with “When Echinochloa crus-galli var. crus-galli, Monochoria vaginalis, Rotala indica and Scirpus juncoides reached 1 to 2 leaf stage and” for “One day after”, “rice plant reached 4 leaf stage,” for “sowing,”, “on” for “on the rice plant and”, “examined in accordance” for “examined. There was used five rating evaluation,”, “the criteria of judgment in Test Example 1.” for “0 indicating no influence and 5 indicating complete withering.”\nas §6"}, "Rotala indica [12]": {"tested_on": "Rotala indica", "experiment": "Comparative test, post-emergence treatment under submerged conditions (as Test Example 2)", "conditions": "three weeks after the treatment, rating 0-5", "source_text": "as §7\nas §5, with “When Echinochloa crus-galli var. crus-galli, Monochoria vaginalis, Rotala indica and Scirpus juncoides reached 1 to 2 leaf stage and” for “One day after”, “rice plant reached 4 leaf stage,” for “sowing,”, “on” for “on the rice plant and”, “examined in accordance” for “examined. There was used five rating evaluation,”, “the criteria of judgment in Test Example 1.” for “0 indicating no influence and 5 indicating complete withering.”\nas §6"}}}
{"molecule": "C=C(C)[C@@H]1C[C@@H]2O[C@]2(C)[C@H](OCc2ccccc2F)C1", "note": "[A-5, (1S, 2R, 4S, 6S)-2-(2-fluorobenzyloxy)-4-isopropenyl-1-methyl-7-oxabicyclo[4.1.0]heptane]", "values": [{"measurement": "pest or weed control at 25 g/ha", "setting": "Monochoria vaginalis [1]", "result": 59, "unit": "%"}, {"measurement": "pest or weed control at 25 g/ha", "setting": "Scirpus juncoides [2]", "result": 52, "unit": "%"}, {"measurement": "inhibition ratio (%), a (transplanted rice)", "setting": "transplanted rice [3]", "result": 0, "unit": "%"}, {"measurement": "herbicidal effect, A (Echinochloa crus-galli var. crus-galli)", "setting": "[4]; dosage 12.5 g/ha", "result": 5}, {"measurement": "herbicidal effect, A (Echinochloa crus-galli var. crus-galli)", "setting": "[4]; dosage 50 g/ha", "result": 5}, {"measurement": "herbicidal effect, A (Echinochloa crus-galli var. crus-galli)", "setting": "[4]; dosage 200 g/ha", "result": 5}, {"measurement": "herbicidal effect, C (Monochoria vaginalis)", "setting": "Monochoria vaginalis [5]; dosage 12.5 g/ha", "result": 2}, {"measurement": "herbicidal effect, C (Monochoria vaginalis)", "setting": "Monochoria vaginalis [5]; dosage 50 g/ha", "result": 5}, {"measurement": "herbicidal effect, C (Monochoria vaginalis)", "setting": "Monochoria vaginalis [5]; dosage 200 g/ha", "result": 5}, {"measurement": "herbicidal effect, D (Rotala indica)", "setting": "Rotala indica [6]; dosage 12.5 g/ha", "result": 2}, {"measurement": "herbicidal effect, D (Rotala indica)", "setting": "Rotala indica [6]; dosage 50 g/ha", "result": 5}, {"measurement": "herbicidal effect, D (Rotala indica)", "setting": "Rotala indica [6]; dosage 200 g/ha", "result": 5}, {"measurement": "herbicidal effect, B (Scirpus juncoides)", "setting": "Scirpus juncoides [7]; dosage 12.5 g/ha", "result": 2}, {"measurement": "herbicidal effect, B (Scirpus juncoides)", "setting": "Scirpus juncoides [7]; dosage 50 g/ha", "result": 3}, {"measurement": "herbicidal effect, B (Scirpus juncoides)", "setting": "Scirpus juncoides [7]; dosage 200 g/ha", "result": 5}, {"measurement": "herbicidal effect, a (transplanted rice)", "setting": "transplanted rice [8]; dosage 12.5 g/ha", "result": 0}, {"measurement": "herbicidal effect, a (transplanted rice)", "setting": "transplanted rice [8]; dosage 50 g/ha", "result": 0}, {"measurement": "herbicidal effect, a (transplanted rice)", "setting": "transplanted rice [8]; dosage 200 g/ha", "result": 0}, {"measurement": "herbicidal effect, A (Echinochloa crus-galli var. crus-galli)", "setting": "[9]; dosage 12.5 g/ha", "result": 1}, {"measurement": "herbicidal effect, A (Echinochloa crus-galli var. crus-galli)", "setting": "[9]; dosage 50 g/ha", "result": 5}, {"measurement": "herbicidal effect, A (Echinochloa crus-galli var. crus-galli)", "setting": "[9]; dosage 200 g/ha", "result": 5}, {"measurement": "herbicidal effect, C (Monochoria vaginalis)", "setting": "Monochoria vaginalis [10]; dosage 12.5 g/ha", "result": 1}, {"measurement": "herbicidal effect, C (Monochoria vaginalis)", "setting": "Monochoria vaginalis [10]; dosage 50 g/ha", "result": 4}, {"measurement": "herbicidal effect, C (Monochoria vaginalis)", "setting": "Monochoria vaginalis [10]; dosage 200 g/ha", "result": 5}, {"measurement": "herbicidal effect, B (Scirpus juncoides)", "setting": "Scirpus juncoides [11]; dosage 12.5 g/ha", "result": 1}, {"measurement": "herbicidal effect, B (Scirpus juncoides)", "setting": "Scirpus juncoides [11]; dosage 50 g/ha", "result": 3}, {"measurement": "herbicidal effect, B (Scirpus juncoides)", "setting": "Scirpus juncoides [11]; dosage 200 g/ha", "result": 5}, {"measurement": "herbicidal effect, D (Rotala indica)", "setting": "Rotala indica [12]; dosage 12.5 g/ha", "result": 1}, {"measurement": "herbicidal effect, D (Rotala indica)", "setting": "Rotala indica [12]; dosage 50 g/ha", "result": 3}, {"measurement": "herbicidal effect, D (Rotala indica)", "setting": "Rotala indica [12]; dosage 200 g/ha", "result": 4}]}
